Measurements taken from publication PMC8615521, “Mitochondria-Mediated Apoptosis of HCC Cells Triggered by Knockdown of Glutamate Dehydrogenase 1: Perspective for Its Inhibition through Quercetin and Permethylated Anigopreissin A” (Biomedicines, 2021).

Experiments:
[1] = target: T1, GDH1 from bovine liver (glutamate dehydrogenase 1) (Bos taurus, UniProt P00366); test: spectrophotometric NADH oxidation assay ([…] nm), reference inhibitor measured by the authors; format: biochemical
T1 construct: gene GLUD1; purified bovine liver GDH (Sigma Aldrich, Type II)
T1 sequence (P00366 58-558): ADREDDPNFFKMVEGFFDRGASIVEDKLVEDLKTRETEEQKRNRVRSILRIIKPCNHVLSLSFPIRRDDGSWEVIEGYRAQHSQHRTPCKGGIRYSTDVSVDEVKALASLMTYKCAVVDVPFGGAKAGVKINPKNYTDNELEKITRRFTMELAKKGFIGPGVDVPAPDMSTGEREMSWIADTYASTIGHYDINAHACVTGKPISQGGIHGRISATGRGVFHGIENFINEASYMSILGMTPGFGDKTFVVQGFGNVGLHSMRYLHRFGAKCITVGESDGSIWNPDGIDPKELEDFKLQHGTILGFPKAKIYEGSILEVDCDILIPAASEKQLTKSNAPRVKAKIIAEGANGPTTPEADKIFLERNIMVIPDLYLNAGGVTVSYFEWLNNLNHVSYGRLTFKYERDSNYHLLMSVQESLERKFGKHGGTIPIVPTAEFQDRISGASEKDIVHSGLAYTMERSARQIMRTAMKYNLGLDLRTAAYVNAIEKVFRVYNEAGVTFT

[2] = target: T1, GDH1 from bovine liver (glutamate dehydrogenase 1); test: spectrophotometric NADH oxidation assay ([…] nm), Lineweaver-Burk and secondary plots; format: biochemical
[3] = target: T2, hGDH1 (human glutamate dehydrogenase 1) (Homo sapiens, UniProt P00367); test: GDH activity in HepG2 cell extract (NADH, […] nm); format: cell-based; settings: HepG2, read-out: % inhibition at 8 μM %
T2 construct: gene GLUD1; GDH activity in HepG2 cellular extract
T2 sequence (P00367 54-558): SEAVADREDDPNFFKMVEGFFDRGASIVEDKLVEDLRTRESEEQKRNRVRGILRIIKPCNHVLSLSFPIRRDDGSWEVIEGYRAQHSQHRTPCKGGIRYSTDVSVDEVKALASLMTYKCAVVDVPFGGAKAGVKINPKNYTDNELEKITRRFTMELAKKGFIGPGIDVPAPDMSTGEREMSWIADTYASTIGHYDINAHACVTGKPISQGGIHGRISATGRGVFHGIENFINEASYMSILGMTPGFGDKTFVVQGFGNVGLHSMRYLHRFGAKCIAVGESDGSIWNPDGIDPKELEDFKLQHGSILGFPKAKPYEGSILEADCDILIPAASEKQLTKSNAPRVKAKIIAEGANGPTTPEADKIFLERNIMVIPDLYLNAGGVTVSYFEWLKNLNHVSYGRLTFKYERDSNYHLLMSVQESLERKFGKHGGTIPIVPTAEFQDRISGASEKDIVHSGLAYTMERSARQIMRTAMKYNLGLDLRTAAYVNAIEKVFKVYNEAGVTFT

| Molecule | IC50 [1] [µM] | Ki [2] [µM] | inhibition at 8 µM [3] [%] |
| --- | --- | --- | --- |
| O=C(O[C@@H]1Cc2c(O)cc(O)cc2O[C@@H]1c1cc(O)c(O)c(O)c1)c1cc(O)c(O)c(O)c1 [EGCG, Epigallocatechin gallate] | ~2 |  |  |
| O=c1c(O)c(-c2ccc(O)c(O)c2)oc2cc(O)cc(O)c12 [quercetin] |  | 9.2 | ~56 |
| Permethylated Anigopreissin A [PAA] |  | 10 |  |
